Source: PMC10314207, “The Dynamic Intestinal Absorption Model (Diamod®), an in vitro tool to study the interconnected kinetics of gastrointestinal solubility, supersaturation, precipitation, and intestinal permeation processes of oral drugs” (International Journal of Pharmaceutics: X, 2023)
In brackets after ≈: the same amount, converted by molar mass. Structures can show the parent of a compound that is named as a salt.

Legend:
[1] = water intake versus no water, cited from earlier work
[2] = high carbohydrate meal; ref Carver et al. (1999); cited from earlier work
[3] = Diamod® fed state: indinavir sulfate with protein meal (Ensure® plus) or carbohydrate meal, high or low bile salts
[4] = Diamod® fasted state: 20 mL Sporanox® solution without or with 240 mL water (stomach, duodenum, permeate); type: in vitro ADME
Description: The stomach vessel accepts gastric secretions (Flow rate F1) and is continuously emptied (Flow rate F2) into the second reactor vessel which simulates the lumen of the duodenum and the blood stream that accepts the permeated fraction. […] The geometry of the inner donor compartment is designed to contain biorelevant duodenal volumes (30 mL), to generate a permeation surface area of 65 cm^2 and to result in a permeation surface area to donor volume ratio of 2 cm^−1.

[5] = ref Bevernage et al., 2012; cited from earlier work
[6] = fed, carbohydrate meal, high bile salts

## CC(O)COC[C@H]1O[C@@H]2O[C@H]3[C@H](O)[C@@H](O)[C@@H](O[C@H]4[C@H](O)[C@@H](O)[C@@H](O[C@H]5[C@H](O)[C@@H](O)[C@@H](O[C@H]6[C@H](O)[C@@H](O)[C@@H](O[C@H]7[C@H](O)[C@@H](O)[C@@H](O[C@H]8[C@H](O)[C@@H](O)[C@@H](O[C@H]1[C@H](O)[C@H]2O)O[C@@H]8COCC(C)O)O[C@@H]7COCC(C)O)O[C@@H]6COCC(C)O)O[C@@H]5COCC(C)O)O[C@@H]4COCC(C)O)O[C@@H]3COCC(C)O (stereo partly drawn) [2-HP-β-CD, 2-hydroxypropyl-β-cyclodextrin]
[1]; in vivo duodenal aspirates, ref Berben et al. (2018c)
  fold decrease in duodenal AUC0-3h: 2.3 fold

## CC(C)(C)NC(=O)[C@@H]1CN(Cc2cccnc2)CCN1C[C@@H](O)C[C@@H](Cc1ccccc1)C(=O)N[C@H]1c2ccccc2C[C@H]1O [indinavir sulfate]
[2]
  increase of Tmax: approximately 3 h
[3]; fed high protein meal versus fasted
  decrease in average duodenal solute concentration AUC0–240min: 34.2%

## CC(C)(C)NC(=O)[C@@H]1CN(Cc2cccnc2)CCN1C[C@@H](O)C[C@@H](Cc1ccccc1)C(=O)N[C@H]1c2ccccc2C[C@H]1O [indinavir]
[3]; [6]
  Cmax total in the duodenum: 504.3 ± 3.1 µM
  Cmax total in the stomach: 1225.5 ± 19.9 µM
  supersaturation state in the duodenum: supersaturated throughout the transit through the duodenum
[3]; fed, carbohydrate meal, low bile salts
  supersaturation state in the duodenum: supersaturating throughout the transit through the duodenum
[3]; fed, high protein meal
  Cmax total in the duodenum: 514.8 ± 16.5 µM
[3]; fed, high protein meal (Ensure® Plus)
  Cmax total in the stomach: 1386.0 ± 120.11 µM
[3]; fed, high protein meal, after bile salts decreased towards fasted levels
  duodenal solute concentrations: around 100 μM
[3]; fed, high protein meal, period of high bile salts
  supersaturation state in the duodenum: not in a state of supersaturation

## CCC(C)n1ncn(-c2ccc(N3CCN(c4ccc(OCC5COC(Cn6cncn6)(c6ccc(Cl)cc6Cl)O5)cc4)CC3)cc2)c1=O (stereo not drawn) [itraconazole]
[4]; difference of solute and total AUC reduction
  additional precipitation in the duodenum upon water intake: 24.0%
[4]; independently of water intake
  dissolution state during transit through the stomach: completely dissolved
[4]; water intake versus no water
  decrease in AUC0-180min of permeated drug: 3.2%
  decrease in stomach solute AUC0-180min: 47%
  decrease in stomach total AUC0-180min: 45%
  decrease of duodenal AUC0-180min of solute concentration: 56.1%
  fold decrease of stomach AUC0-180min of solute itraconazole: 1.9 fold
  reduction of duodenal AUC0-180min of total concentration: 32.1%
[5]
  solubility in FaSSGF: 2.7 µM (≈ 1.91 µg/mL)
[1]; in vivo, ref Berben et al., 2017
  reduction (times) in average dissolved gastric AUC0-3h: 1.8 times
